Assay results reported in BindingDB's records for doi:10.1016/s0960-894x(98)00596-4 (University of Connecticut, 1999).

What was measured:
[1] = Inhibitory activity against alpha-L-fucosidase in bovine kidney; Competitive Inhibition type
[2] = Inhibitory activity against alpha-L-fucosidase in bovine kidney at PH of 6.5; Mixed Inhibition type; settings: pH 6.5
[3] = Inhibitory activity against alpha-L-fucosidase in bovine epididymis at PH of 6.5; Competitive Inhibition type; settings: pH 6.5

O[C@H]1[C@H](O)[C@H](O)O[C@@H](CS)[C@H]1O [(2R,3S,4R,5S,6R)-6-Mercaptomethyl-tetrahydro-pyran-2,3,4,5-tetraol]
Ki [1]: 42 µM

CC(=O)NCSC1OC(C)C(O)C(O)C1O (stereo not drawn) [N-(3,4,5-Trihydroxy-6-methyl-tetrahydro-pyran-2-ylsulfanylmethyl)-acetamide]
Ki [2]: 4.6 µM | Ki [3]: 5.6 µM
